Source: patent US9833423B2 (KOREA RESEARCH INSTITUTE OF CHEMICAL TECHNOLOGY, priority 2011, dated 2017)
In brackets after ≈: the same amount, converted by molar mass. Where two headings read alike, the source gives them in different places.

Tests used:
[1] = system: 48 rhinovirus types and coxsackievirus A21, B3, enterovirus 70 and echovirus 11; details: cited from earlier work
[2] = cited from earlier work
[3] = system: Entero-virus 70; assay: Cytopathic effect (CPE) inhibition assay; format: cell-based, Enterovirus 70; details: Enterovirus D, MRC5, 48 h; Table 3; MRC-5, 37° C., 2 days
[4] = in vitro; details: human
[5] = system: Coxsackie-virus B1; assay: Cytopathic effect (CPE) inhibition assay; format: cell-based, Coxsackievirus B1; details: Enterovirus B, HeLa37, 48 h
[6] = system: Coxsackie-virus B3; assay: Cytopathic effect (CPE) inhibition assay; format: cell-based, Coxsackievirus B3; details: Enterovirus B, HeLa37, 48 h
[7] = Cytotoxicity (CC50) in mock-infected cells, MTT assay, Experimental Example 1; details: human
[8] = system: Coxsackie-virus A24 (HG); assay: Cytopathic effect (CPE) inhibition assay; format: cell-based, Coxsackievirus A24; details: Enterovirus C, MRC5, 48 h; Table 3; MRC-5, 37° C., 2 days
[9] = system: Polio-virus 3; assay: microbe, parasite or virus in culture; format: cell-based, Poliovirus 3; details: Enterovirus C, HeLa37, 48 h, read-out: Polio-virus 3 EC50
[10] = in vivo, cited from earlier work
[11] = in vivo; cited from earlier work
[12] = in vivo; cited from earlier work; remark: listed apart in the source
[13] = Table 3, HeLa, 37° C., 2 days, read-out: EC50 Coxsackie-virus B1
[14] = Table 3, HeLa, 37° C., 2 days, read-out: EC50 Coxsackie-virus B3
[15] = Table 4, HeLa, 37° C., 2 days, read-out: Coxsackie-virus B1 EC50
[16] = Table 4, HeLa, 37° C., 2 days, read-out: Coxsackie-virus B3 EC50
[17] = read-out: Coxsackie-virus B1 EC50
[18] = read-out: Coxsackie-virus B3 EC50

In the case of `CCOC(=O)/C=C/[C@H](C[C@@H]1CCNC1=O)NC(=O)[C@@H](CC(=O)[C@@H](NC(=O)c1cc(C)on1)C(C)C)Cc1ccc(F)cc1` [AG 7088], the “concentration range with an effect in the cell culture” value [1] is given as “nanomolar concentration range”.

For `CC(C)S(=O)(=O)n1c(N)nc2ccc(/C(=N/O)c3ccccc3)cc21` [Enviroxime], the “therapeutic effects in clinical studies” value ([2]; clinical studies) is listed as “insignificant or few therapeutic effects”, the “pharmacokinetics in clinical studies” value ([2]; in vivo) is listed as “bad” and the “side effects in clinical studies” value ([2]; in vivo) is listed as “unwanted side effects”.

With `CC(=O)Oc1cc(C)c(C)cc1C1(OC(C)=O)C(=O)c2ccccc2C1=O` [Example 2, 2-(2-Acetoxy-1,3-dioxo-2,3-dihydro-1H-inden-2-yl)-4,5-dimethylphenyl acetate] the EC50 [3] was < 1 µg/mL, the melting point was 206 to 207 °C and the CC50 ([4]; CC50) was > 100 µg/mL.

`CC(=O)Oc1cc(Cl)ccc1C1(OC(C)=O)C(=O)c2ccccc2C1=O` [Example 3, 2-(2-Acetoxy-1,3-dioxo-2,3-dihydro-1H-inden-2-yl)-5-chlorophenyl acetate] gave an EC50 [3] of 0.013 µg/mL, a melting point of 148 to 150 °C and a CC50 ([4]; CC50) of 50.7 µg/mL.

For `CCc1ccc(C2(OC(C)=O)C(=O)c3ccccc3C2=O)c(OC(C)=O)c1` [Example 6, 2-(2-Acetoxy-1,3-dioxo-2,3-dihydro-1H-inden-2-yl)-5-ethylphenyl acetate], the EC50 [3] was < 0.01 µg/mL, the melting point was 136 to 137 °C and the EC50 [5, 13] was < 0.01 µg/mL. For the same compound, the EC50 [6, 14] was 0.035 µg/mL and the CC50 ([4]; CC50) was 23.5 µg/mL.

For `CC(C)c1ccc(C2(OC(=O)N(C)C)C(=O)c3ccccc3C2=O)c(OC(=O)N(C)C)c1` [Example 31, Dimethyl-carbamic acid 2-(2-dimethylcarbamoyloxy-1,3-dioxo-indan-2-yl)-5-isopropyl-phenyl ester], the melting point was 203 to 205 °C and the CC50 [7] was > 100 µg/mL.

With `CCC(=O)NC1(c2ccc(C(C)C)cc2OC(=O)CC)C(=O)c2ccccc2C1=O` [Example 68, 2-(1,3-Dioxo-2-propionamido-2,3-dihydro-1H-inden-2-yl)-5-isopropylphenyl propionate] the melting point was 173 to 175 °C, the EC50 [5, 13] was < 0.01 µg/mL and the EC50 [6, 14] was < 0.01 µg/mL. For the same compound, the CC50 ([4]; CC50) was 66 µg/mL (≈ 162 µM) and the EC50 [8] was < 1 µg/mL.

In the case of `CC(C)c1ccc(C2(NC(=O)c3ccccc3)C(=O)c3ccccc3C2=O)c(OC(=O)c2ccccc2)c1` [Example 70, 2-(2-Benzamido-1,3-dioxo-2,3-dihydro-1H-inden-2-yl)-5-isopropylphenyl benzoate], the melting point is reported as 138 to 140 °C, the EC50 [5, 13] is reported as < 0.01 µg/mL and the EC50 [6, 14] is reported as < 0.01 µg/mL. The CC50 ([4]; CC50) was > 117 µg/mL and the EC50 [8] was < 1 µg/mL.

In the case of `CCCCOC(=O)Oc1cc(C(C)C)ccc1C1(NC(C)=O)C(=O)c2cccc(N)c2C1=O` (stereo not shown) [Example 96, 2-(2-Acetamido-4-amino-1,3-dioxo-2,3-dihydro-1H-inden-2-yl)-5-isopropylphenyl butyl carbonate2-(2-acetamido-4-amino-1,3-dioxo-2,3-dihydro-1H-inden-2-yl)-5-isopropylphenyl butyl carbonate], the EC50 [5, 15] is reported as < 0.01 µg/mL, the EC50 [6, 16] is reported as < 0.01 µg/mL and the CC50 ([4]; Picorna-virus CC50) is reported as 48.9 µg/mL (≈ 108 µM). For the same compound, the EC50 [9] was 0.03 µg/mL (≈ 0.0663 µM).

In the case of `CNC(=O)Oc1cc(C(C)C)ccc1C1(NC(C)=O)C(=O)c2ccccc2C1=O` [Example 97, 2-(2-Acetamido-1,3-dioxo-2,3-dihydro-1H-inden-2-yl)-5-isopropylphenyl methylcarbamate], the EC50 [5, 17] is reported as < 0.01 µg/mL, the EC50 [6, 18] is reported as < 0.01 µg/mL and the CC50 [7] is reported as 45.1 µg/mL (≈ 114 µM).

For `CC(=O)NC1(c2ccc(C(C)C)cc2OC(=O)N(C)C)C(=O)c2ccccc2C1=O` [Example 98, Dimethyl-carbamic acid 2-(2-acetylamino-1,3-dioxo-indan-2-yl)-5-isopropyl-phenyl ester], the EC50 [5, 17] was 0.013 µg/mL (≈ 0.0318 µM) and the CC50 [7] was > 100 µg/mL.

With `CC(=O)NC1(c2ccc(C(C)C)cc2OC(=O)N(C)C)C(=O)c2cccc(N)c2C1=O` (stereo not shown) [Example 100, 2-(2-Acetamido-4-amino-1,3-dioxo-2,3-dihydro-1H-inden-2-yl)-5-isopropylphenyl dimethylcarbamate] the EC50 [5, 17] was < 0.01 µg/mL, the EC50 [6, 18] was < 0.01 µg/mL and the CC50 [7] was > 100 µg/mL.

With `CCNC(=O)Oc1cc(C(C)C)ccc1C1(NC(C)=O)C(=O)c2cccc(N)c2C1=O` (stereo not shown) [Example 103, 2-(2-Acetamido-4-amino-1,3-dioxo-2,3-dihydro-1H-inden-2-yl)-5-isopropylphenyl ethylcarbamate] the EC50 [5, 15] was < 0.01 µg/mL, the EC50 [6, 16] was < 0.01 µg/mL and the CC50 ([4]; Picorna-virus CC50) was 26.3 µg/mL (≈ 62 µM). It also gave an EC50 [9] of 0.013 µg/mL (≈ 0.0307 µM).

For `Cc1cc(CCCOc2c(C)cc(-c3noc(C(F)(F)F)n3)cc2C)on1` [Pleconaril], the oral bioavailability ([10]; po) is listed as “very good”.

For `Cc1cc(CCCCCOc2c(Cl)cc(C3=NCCO3)cc2Cl)on1` [WIN 54954], the side effects [11] is listed as “skin rash” and the metabolization and excretion [12] is listed as “rapid”.

For `CCC(=O)C(CCCCCCOc1ccc(OC)cc1Cl)C(=O)CC` [arildone], the bioavailability [10] is given as “low”.

For `Cc1cc(CCCCCCCOc2ccc(C3=NCCO3)cc2)on1` [disoxaril], the bioavailability [10] is given as “low” and the metabolization and excretion [12] is given as “rapid”.
